Data on two compounds can be found in US8592485B2, “Methods and pharmaceutical compositions for treating the animal central nervous system for psychiatric disorders” (HealthPartners Research Foundation, priority 2010, dated 2013).

For data set [1] the following is noted: cited from earlier work.
For data set [2] the following is noted: cited from earlier work. This is another data set of the same source.
Data set [3] deals with GSK3b. The data set is described as follows: Hippocampal pGSK3b/GSK3b ratio in C57 mice after DFO (western blot, ELISA). The format is in vivo. The conditions noted are these: hippocampus (FIG. 1A); for higher ratio of pGSK3b/GSK3b than PBS mice: upper third of nasal cavity, five days/week for four weeks. The method, then: The study method providing results in FIGS. 1A and 1B comprised normal C57 mice which were treated with DFO by administration to the upper third of the nasal cavity, thereby delivering the DFO directly to the CNS by bypassing the blood-brain barrier. Treatment groups consisted of 1% DFO, 10% DFO and saline. Mice were treated five days/week for four weeks. Mice were then dosed a final time, euthanized after 30 minutes, brain tissues collected an analyzed for biochemical changes. Protein extraction was achieved by homogenization of frozen brain tissues in 5 volumes of ice-cold RIPA buffer supplemented with protease inhibitor cocktail and phosphatase inhibitor cocktail. Homogenates were centrifuged at 20,000×g for 20 minutes at 4C. Supernatant was collected from the cortex, diencephalon and hippocampus and stored at −70C until analysis by western blot and ELISA.

Data set [4] is described as follows: Intranasal delivery of DFO (bound to 59Fe) to rats, tissue concentrations by scintillation counting.
Procedure: Delivery of intranasal DFO to the upper one-third of the nasal cavity has been assessed by administering 6 mg DFO bound to 6 μCi of ^59Fe (as ^59FeCl3) to rats under anesthesia. The IN dose in 60 μL was administered as 6 μL drops over twenty minutes. Following delivery, tissues were removed for analysis.

Turning to `CC(=O)N(O)CCCCCNC(=O)CCC(=O)N(O)CCCCCNC(=O)CCC(=O)N(O)CCCCCN` [DFO, deferoxamine], the typical plasma half-life result in data set [1] (humans, intravenous) is “less than 10 minutes”. The “crossing of the blood-brain barrier” value in data set [1] (intravenously or systemically administered) is given as “does not efficiently or effectively cross the blood-brain barrier”. In addition, the “effect of injection of an intravenous bolus” value in data set [2] is listed as “acute hypotension”. For the same compound, the “higher ratio of pGSK3b/GSK3b than PBS mice” value came out at 99.8% in data set [3] (1% DFO) and 214% in data set [3] (10% DFO). The “higher ratio of pGSK3b/GSK3b of 10% DFO mice than 1% DFO mice” value in data set [3] (10% DFO versus 1% DFO, intranasal) is reported as 57.4%.

In the case of `CC(=O)N([O-])CCCCCNC(=O)CCC(=O)N([O-])CCCCCNC(=O)CCC(=O)N([O-])CCCCCN.[Fe+3]` [ferrioxamine], the “blood concentrations of ferrioxamine” value in data set [4] (5 minute intervals from dosing up to 25 minutes post-dose) is “quite low”. Besides, the “labeled ferrioxamine in brain by scintillation counting” value in data set [4] (intranasal 6 mg DFO bound to 6 uCi 59Fe) is reported as “detected throughout the brain”.
